From ChEMBL document CHEMBL4028858, “Structural Biology-Inspired Discovery of Novel KRAS-PDEδ Inhibitors” (J Med Chem, 2017) come the findings set out here.

Data set [1] relates to CAPAN-1. Briefly: Induction of apoptosis in KRAS-dependent human Capan1 cells at 10 uM incubated for 48 hrs by Annexin-V FITC/propidium iodide staining-based flow cytometry relative to control. The data set is classed as functional. (In general: In flow cytometry, cells or beads pass a laser one at a time.)
The test system of data set [2] is CAPAN-1. The data set can be described thus: Antiproliferative activity against KRAS-dependent human Capan1 cells after 48 hrs by CCK8 assay. (In general: Tetrazolium dyes change colour on reduction, which living cells bring about.)
The target of data set [3] is RAC-alpha serine/threonine-protein kinase (Homo sapiens) (UniProt P31749). The data set can be described thus: […] of EGF-induced AKT phosphorylation at Ser473 in human Capan1 cells at 25 uM after 1 hr by Western blot method. The data set is classed as cell-based. Background: In western blotting, separated proteins are transferred to a membrane and probed.
Chain of RAC-alpha serine/threonine-protein kinase (Homo sapiens) (P31749 whole entry): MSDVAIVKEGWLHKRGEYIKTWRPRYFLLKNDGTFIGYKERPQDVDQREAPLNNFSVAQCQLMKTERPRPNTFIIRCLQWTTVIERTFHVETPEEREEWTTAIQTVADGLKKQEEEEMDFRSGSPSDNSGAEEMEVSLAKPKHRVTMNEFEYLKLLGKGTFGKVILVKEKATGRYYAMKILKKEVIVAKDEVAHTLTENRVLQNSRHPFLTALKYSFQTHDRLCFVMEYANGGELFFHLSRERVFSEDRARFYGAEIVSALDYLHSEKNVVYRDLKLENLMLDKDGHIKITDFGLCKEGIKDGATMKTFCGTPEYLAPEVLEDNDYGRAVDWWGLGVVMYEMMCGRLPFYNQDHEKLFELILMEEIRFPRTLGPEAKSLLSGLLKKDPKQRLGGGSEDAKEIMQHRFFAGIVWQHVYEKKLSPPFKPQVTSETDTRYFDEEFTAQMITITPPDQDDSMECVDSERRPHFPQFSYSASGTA
The species named for data set [4] is Homo sapiens. The data set can be described thus: Effect on EGF-induced ERK phosphorylation at Thr202/Tyr204 in human Capan1 cells at 25 uM after 1 hr by Western blot method.
Data set [5] concerns CAPAN-1. The data set can be described thus: Potency index, ratio of deltazinone IC50 to test compound IC50 for KRAS-dependent human Capan1 cells. It is filed as functional.
Data set [6] addresses T1, Retinal rod rhodopsin-sensitive cGMP 3',5'-cyclic phosphodiesterase subunit delta (Homo sapiens, UniProt O43924).
Description: Inhibition of Atrovastatin-PEG3-FITC binding to PDEdelta (unknown origin) incubated for 60 mins by fluorescence anisotropy assay
Data set [7] addresses T1, Retinal rod rhodopsin-sensitive cGMP 3',5'-cyclic phosphodiesterase subunit delta. Conditions: 10 uM.
Description: Inhibition of PDEdelta in KRAS-dependent human Capan1 cells assessed as increase in endogenous RAS distribution to endomembranes at 10 uM incubated for 2 hrs by immunofluorescence staining based method
The subject of data set [8] is CAPAN-1. The data set can be described thus: Downregulation of PDEdelta protein expression in KRAS-dependent human Capan1 cells at 10 uM incubated for 2 hrs by immunofluorescence staining-based method. It is filed as functional, cell-based.
The target in data set [9] is T1, Retinal rod rhodopsin-sensitive cGMP 3',5'-cyclic phosphodiesterase subunit delta. The conditions noted are these: 10 uM. The source holds these as a separate data set.
Description: Inhibition of PDEdelta in KRAS-dependent human Capan1 cells assessed as downregulation of EGF-induced AKT phosphorylation at Ser473 at 10 uM incubated for >5 hrs by Western blot method
For data set [10] the target is unchanged. Conditions: 10 uM. This is another data set of the same source.
Description: Inhibition of PDEdelta in KRAS-dependent human Capan1 cells assessed as downregulation of EGF-induced ERK phosphorylation at Thr202/Thr204 at 10 uM incubated for >5 hrs by Western blot method
For data set [11], the system named is CAPAN-1. Briefly: Induction of apoptosis in KRAS-dependent human Capan1 cells incubated for 48 hrs by Annexin-V FITC/propidium iodide staining-based flow cytometry. It is filed as functional, cell-based.
Data set [12] is described as follows: Aqueous solubility of the compound at 5 mg/ml measured after 24 hrs by HPLC method. The data set is classed as physicochemical. The conditions noted are these: water (aqueous).
The test system of data set [13] is CAPAN-1. The data set can be described thus: Induction of apoptosis in KRAS-dependent human Capan1 cells at 25 uM incubated for 48 hrs by Annexin-V FITC/propidium iodide staining-based flow cytometry relative to control. It is filed as functional.
Data set [14] concerns the target T1, Retinal rod rhodopsin-sensitive cGMP 3',5'-cyclic phosphodiesterase subunit delta. The conditions noted are these: 1 mM.
Description: Binding affinity to PDEdelta (unknown origin) assessed as change in melting temperature at 1 mM by circular dichroism spectroscopy
Data set [15] deals with CAPAN-1. The data set can be described thus: Antiproliferative activity against KRAS-dependent human Capan1 cells at 100 uM after 48 hrs by CCK8 assay relative to control. It is filed as functional.
Data set [16] concerns CAPAN-1. The data set can be described thus: Induction of apoptosis in KRAS-dependent human Capan1 cells at 50 uM incubated for 48 hrs by Annexin-V FITC/propidium iodide staining-based flow cytometry relative to control. It is filed as functional.
The test system of data set [17] is CAPAN-1. Briefly: Downregulation of PDEdelta protein expression in KRAS-dependent human Capan1 cells at 25 uM incubated for 2 hrs by immunofluorescence staining-based method. It is filed as functional, cell-based.

One may read the IC50 as the point on the concentration scale where inhibition reaches its midpoint. In general, Kd refers to the equilibrium constant for the complex coming apart. A lower Kd goes with a tighter complex. Usually solubility stands for the concentration that dissolves in the medium under given conditions. Higher therefore signals a readily soluble substance. Usually ΔTm stands for the shift of the melting midpoint relative to a reference.

≈ marks a conversion by molar mass, not a printed value. Calls of active or inactive are those of the source. The rule behind the calls is not given here.

T1 sequence (O43924 whole entry): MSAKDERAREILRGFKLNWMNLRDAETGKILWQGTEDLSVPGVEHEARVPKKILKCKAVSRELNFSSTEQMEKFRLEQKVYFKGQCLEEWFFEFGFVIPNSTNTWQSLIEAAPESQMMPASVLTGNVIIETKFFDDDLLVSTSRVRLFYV

`Cc1ccc(-n2nc3c(=O)n(CCCC(=O)NCC(C)c4ccccc4)nc(C)c3c2C)cc1` (stereo not given) showed an Activity in [1] of 10%. Also, the half-inhibitory concentration (IC50) in [2] (Homo sapiens, CAPAN-1, 48 h) amounted to 56.9 µM. Further, in [3], the outcome was Active. In addition, the outcome in [4] was inactive.
With `Cc1ccc(-n2nc3c(=O)n(CCC(=O)N4CCC(N5C(=O)c6ccccc6NC5c5ccccc5F)CC4)nc(C)c3c2C)cc1` (stereo in doubt; (+)-3b), the “Ratio IC50” value in [5] was found to be 4. It took 12.4 µM to reach half-maximal inhibition in data set [2] (capan-1) (IC50). Also, binding in data set [6] was characterised by a dissociation constant (Kd) of 0.0006 µM.
On to `Cc1ccc(-n2nc3c(=O)n(CCC(=O)N4CCC(N5C(=O)c6ccccc6NC5c5ccccc5F)CC4)nc(C)c3c2C)cc1` (stereo in doubt; 3b) [listing 1 of 2 here], for which the inhibition result in [7], in [9] and in data set [10] was “Active” throughout. Moreover, the result in data set [8] was Active. Besides, the Activity result in data set [11] is “Dose-dependent effect”.
Take `O=C1c2ccccc2NC(c2ccccc2F)N1CCCCCN1C(=O)c2ccccc2NC1c1ccccc1F` (stereo not given): the concentration in solution in data set [12] (solubility at 24 h) came to 8.9 µM (≈ 4.92 µg/mL). This counts as single-digit micromolar.
In [12], `O=C1c2ccccc2NC(c2ccccc2F)N1CCOc1ccc(N2C(=O)c3ccccc3NC2c2ccccc2F)cc1` (stereo not given) had a solubility at 24 h of 3.2 µM (≈ 1.93 µg/mL). This solubility at 24 h is about 2.8-fold lower than that of the compound before.
Regarding `Cc1ccc(-n2nc3c(=O)n(CCC(=O)N4CCC(N5C(=O)c6ccccc6NC5c5ccccc5F)CC4)nc(C)c3c2C)cc1` (stereo in doubt; 3b) [listing 2 of 2 here], the solubility at 24 h in data set [12] is 268 µM (≈ 170 µg/mL). The same compound displayed an IC50 in [2] (capan-1) of 18.6 µM. The Activity in [13] was 50%. In [6], this compound came in with a Kd of 0.002 µM.
As to `O=C1c2ccccc2N[C@@H](c2ccccc2F)N1c1ccccc1`, in data set [14], the ΔTm came to 14 °C.
As to `O=C1c2cccc3cccc(c23)N1c1ccc(-c2ccccc2)cc1`, the concentration in solution in [12] (solubility at 24 h) came to 0.37 µM (≈ 0.119 µg/mL).
Take `O=C1c2ccccc2NC(c2ccccc2F)N1CCCCCCCN1C(=O)c2ccccc2NC1c1ccccc1F` (stereo not given): the solubility at 24 h in data set [12] came to 30.9 µM (≈ 17.9 µg/mL).
With `O=C1c2ccccc2NC(c2ccccc2F)N1CCN1CCC(N2C(=O)c3ccccc3NC2c2ccccc2F)CC1` (stereo not given), in data set [12], the concentration in solution (solubility at 24 h) came to 70.6 µM (≈ 41.9 µg/mL). In addition, the Activity in data set [15] came out at 48.9%.
In [12], `Cc1ccc(-n2nc3c(=O)n(CCCN4CCC(N5C(=O)c6ccccc6NC5c5ccccc5F)CC4)nc(C)c3c2C)cc1` (stereo not given) registered a solubility at 24 h of 403 µM (≈ 250 µg/mL). This compound displayed an IC50 in data set [2] (Homo sapiens, CAPAN-1, 48 h) of 27.6 µM. The Activity entry is “Dose-dependent effect” in data set [11] and 50% in data set [13].
As for `O=C1c2ccccc2NC(c2ccccc2F)N1c1ccccc1` (racemic), the thermal shift (ΔTm) in [14] came out at 12.7 °C.
Take `O=C1c2ccccc2NC(c2ccccc2F)N1CCCCCCN1C(=O)c2ccccc2NC1c1ccccc1F` (stereo not given): the concentration in solution in [12] (solubility at 24 h) was 14 µM (≈ 7.93 µg/mL).
In turn, `Cc1ccc(-n2nc3c(=O)n(CCC(=O)N4CCC(N5C(=O)c6ccccc6NC5c5ccccc5F)CC4)nc(C)c3c2C)cc1` (single isomer, unassigned; (-)) came in with an IC50 in data set [2] (capan-1) of 25.6 µM. Moreover, in [6], binding was put at a Kd of 0.037 µM.
As for `O=C1c2ccccc2N[C@@H](c2ccccc2F)N1CCN1CCC(N2C(=O)c3ccccc3N[C@H]2c2ccccc2F)CC1`, the Activity in data set [13] came to 23.6%; in data set [16], 39.3%. The outcome in data set [17] was Active.
As for `O=C1c2ccccc2N[C@H](c2ccccc2F)N1c1ccccc1`, in data set [14], the ΔTm worked out at 5.75 °C.
